# Test system: Rats with chronic constriction nerve injury
# Experiment: Analgesic effect in rats with chronic constriction nerve injury (von Frey filaments, 50% pain threshold)
# Type: in vivo, rat
# Settings: oral, dose of 30 mg/kg or less, measured after 3 hours
# Excerpt: Analgesic Effect of Compounds in Rats with Chronic Constriction Nerve Injury
# Rats with chronic constriction nerve injury were produced by partially modifying the method of Mosconi and Kruger et al. [Pain, 1996, Vol. 64, p. 37-57] with slight modification.
# The sciatic nerve in the left posterior leg of male Crl:CD (SD) rats was exfoliated under pentobarbital anesthesia, and a polyethylene tube (trade name: Intramedic; size: PE-60; Becton Dickinson) having a length of 2 mm was wrapped over the site of exfoliation. On days 14 to 21 after the surgery, the rats were placed in an acrylic quadruple cage (width 900 mm×depth 210 mm×height 140 mm) with a wire mesh floor consisting 4 cages connected in a row. Pain evaluation was performed after at least 20 minutes to allow the rats to acclimate to the new environment.
# In pain evaluation, von Frey filaments (trade name: Touch Test Sensory Evaluator; Model: 58011; Muromachi Kikai Co., Ltd.) were used. The results were calculated as a pain thresholds. That is, by using a von Frey filament of different stimulus intensity, stimulation was given to the plantar surface of the injured side of rats with chronic constriction nerve injury, and the stimulus intensity to cause paw withdrawal response was obtained. […] 441-462]. The 50% pain thresholds of normal rats were 10 to 12 g on average.
# For the evaluation of test compounds, rats with 50% pain thresholds of less than 4 g were used. The test compounds were suspended in a 0.5% aqueous methyl cellulose solution, and orally administered at a volume of 5 mL/kg. After 3 hours, pain thresholds were measured using von Frey filaments.
row,Structure (SMILES),pain thresholds (50% paw withdrawal thresholds)
1,"CCNc1ncc2c(n1)N1CCCC1CN(c1cccc(-c3ccnc(Cl)c3)c1)C2=O (stereo not shown) [Compound 16, 5-[3-(2-Chloropyridin-4-yl)phenyl]-9-ethylamino-1,2,3,3a,4,5-hexahydro-5,8,10,10b-tetraazabenzo[e]azulen-6-one]",significantly increased pain thresholds
2,"CCNc1ncc2c(n1)N1CCCC1CN(c1cccc(-c3nnc(C)o3)c1)C2=O (stereo not shown) [Compound 20, 9-Ethylamino-5-[3-(5-methyl-[1,3,4]oxadiazol-2-yl)phenyl]-1,2,3,3a,4,5-hexahydro-5,8,10,10b-tetraazabenzo[e]azulen-6-one]",significantly increased pain thresholds
3,"CCNc1ncc2c(n1)N1CCC[C@H]1CN(c1cncc(-c3nnc(C)o3)c1)C2=O [Compound 43, (S)-9-Ethylamino-5-[5-(5-methyl-1,3,4-oxadiazol-2-yl)pyridin-3-yl]-1,2,3,3a,4,5-hexahydro-5,8,10,10b-tetraazabenzo[e]azulen-6-one]",significantly increased pain thresholds
4,"CCNc1ncc2c(n1)N1CCC[C@H]1CN(c1cccc(-c3noc(C)n3)c1)C2=O [Compound 72, (S)-9-Ethylamino-5-[3-(5-methyl-1,2,4-oxadiazol-3-yl)phenyl]-1,2,3,3a,4,5-hexahydro-5,8,10,10b-tetraazabenzo[e]azulen-6-one]",significantly increased pain thresholds
5,"CNc1ncc2c(n1)N1CCC[C@H]1CN(c1cccc(-c3noc(C)n3)c1)C2=O [Compound 74, (S)-5-[3-(5-Methyl-1,2,4-oxadiazol-3-yl)phenyl]-9-methylamino-1,2,3,3a,4,5-hexahydro-5,8,10,10b-tetraazabenzo[e]azulen-6-one]",significantly increased pain thresholds
6,"CNc1ncc2c(n1)N1CCC[C@H]1CN(c1cccc(-c3nn(C)c(=O)o3)c1)C2=O [Compound 89, (S)-3-Methyl-5-[3-(9-methylamino-6-oxo-2,3,3a,4-tetrahydro-1H,6H-5,8,10,10b-tetraazabenzo[e]azulen-5-yl)phenyl]-1,3,4-oxadiazol-2(3H)-one]",significantly increased pain thresholds
7,"CCNc1ncc2c(n1)N1CCC[C@H]1CN(c1cccc(-c3nn(C)c(=O)o3)c1)C2=O [Compound 90, (S)-5-[3-(9-Ethylamino-6-oxo-2,3,3a,4-tetrahydro-1H,6H-5,8,10,10b-tetraazabenzo[e]azulen-5-yl)phenyl]-3-methyl-1,3,4-oxadiazol-2(3H)-one]",significantly increased pain thresholds
8,"CNc1ncc2c(n1)N1CCC[C@H]1CN(c1cccc(-c3nnn(C)n3)c1)C2=O [Compound 137, (S)-5-[3-(2-Methyl-2H-tetrazol-5-yl)phenyl]-9-methylamino-1,2,3,3a,4,5-hexahydro-5,8,10,10b-tetraazabenzo[e]azulen-6-one]",significantly increased pain thresholds

# Test system: chronic dermatitis model with repeated hapten applications
# Experiment: Effects on pruritus in chronic dermatitis model with repeated hapten (oxazolone) applications
# Type: in vivo
# Settings: 100 mg/kg oral, 1 hour before antigen application on day 16; BALB/c mice; ***P < 0.001, t-test vs control group
# Excerpt: Effects on Pruritus in Chronic Dermatitis Model with Repeated Hapten Applications
# A chronic dermatitis model with repeated hapten applications was produced by partially modifying the method of Kitagaki et al. [Journal of Investigative Dermatology, 1995, Vol. 105, p. 749-755].
# Oxazolone (Sigma-Aldrich) was used as hapten, and dissolved in acetone (Kanto Kagaku) to prepare a 0.5 w/v % oxazolone-acetone solution (antigen solution). BALB/c mice (6 weeks of age) were sensitized by a single application of the antigen solution (10 μL) to the shaved rostral back. […]
# Itch response of the mice on day 16 was analyzed by partially modifying the method of Kuraishi et al. [European journal of phamacology, 1995, Vol. 275, p. […]
# To allow the mice to acclimate to new environment, the mice were left in an acrylic observation cage (7.5×8×15 cm) for 1 hour. The mice were put back into the cage immediately after the application of the antigen solution to the rostral back, and the behavior of the mice was monitored unattended with an 8 mm video camera recorder. […] During the observation, scratching movements with the hind paws around the site of antigen solution application was counted. […] A series of these movements was counted as a single scratching movement.
row,Structure (SMILES),The number of scratching movements during 1 hr after the hapten applications [counts]
1,"CCNc1ncc2c(n1)N1CCC[C@H]1CN(Cc1ccc(F)cc1F)C2=O [Compound 3, (S)-5-(2,4-Difluorobenzyl)-9-ethylamino-1,2,3,3a,4,5-hexahydro-5,8,10,10b-tetraazabenzo[e]azulen-6-one]",225±37
2,"CCNc1ncc2c(n1)N1CCC[C@H]1CN(CC1CCN(C(=O)c3ccco3)CC1)C2=O [Compound 35, (S)-9-Ethylamino-5-[1-(furan-2-carbonyl)piperidin-4-yl]methyl-1,2,3,3a,4,5-hexahydro-5,8,10,10b-tetraazabenzo[e]azulen-6-one]",84±33

# Reference: patent US7998954B2, “Pyrimidodiazepinone derivative” (Kyowa Hakko Kirin Co., Ltd., priority 2007, dated 2011)
